From US8193175B2, “Ruthenium complexes for treating cancers” (Universite de Strasbourg, priority 2004, dated 2012)
Entries after “also recorded” stand apart in the source; their conditions may differ.

Columns and labels:
A172 glioblastoma cells = experiment: Nucleus morphology and caspase 3 activation in A172 cells; format: cell-based, human; settings: cisplatinum 15 μM, CDR6 15 μM, CDR9 15 μM
Description: FIG. 2: A—The A172 cells were cultivated on glass slides. […] The cells were then fixed in 4% paraformaldehyde, permeabilised with 0.1% NP40 and marked with Hoechst dye (blue) and the anti-p20 antibody (active fragment of caspase 3, in red). The cells were then observed under the fluorescence microscope. B—Graphic representation of the number of cells with an apoptotic, fragmented or condensed nucleus. The bars are an average of two slides from one experiment representative of 3 carried out. C—In parallel, proteic extracts were prepared from cells treated with various drugs (cisplatinum 15 μM; CDR225 μM; CDR615 μM; CDR915 μM) and following denaturation the extracts were deposited on a !0% SDS-Page gel. After migration, the proteins were transferred onto nitrocellulose (Biorad, 0.2 μm) and the p20 fragment of the caspase 3 was detected by Western blot with an anti-p20 antibody (1/1000, R&D System).
The first step towards characterising the anticancerous effects of the compounds derived from ruthenium consists of testing their activity on tumoral lines kept in culture and comparing these effects on lines which have different characteristics as regards resistance to the anticancer treatments. Two lines of human glioblastomas (A172, HS683) and two lines of neuroblastomas (N2A and SH5Y) were used in order to test the cytostatic effects of the compounds according to the invention. Cisplatinum was chosen as the cytotoxic comparison agent. In a first approach, an MTT test was used to measure the activity of a mitochondrial enzyme, and this gives an estimate of the number of cells. Then, the cytotoxic effects of the compounds according to the invention were characterised in greater detail by analysing the morphology of the nucleus and the activation of caspase 3—two markers of cell apoptosis.

[1] = test system: 2008/CMV and 2008/ATP7B cells; experiment: MTT test on 2008/CMV and 2008/ATP7B cells; format: cell-based; settings: 48 hrs
Method: FIG. 6: The 2008/CMV and 2008/ATP7B cells (contributed by Dr. Howell) were cultivated in plates with 96 wells in DMEM medium with 10% calf serum. At 30% confluence, the cells were treated for 48 hrs with cisplatinum or the various compounds derived from ruthenium in the concentrations indicated (1, 5, 15, 50 μM). The quantity of cells present in the wells was evaluated by an MTT (MTT, Sigma) test. The results obtained were related to the values of the control condition (100% viability). The graphs show an average of 8 points with the typical spacings over one experiment representative of 3 carried out. The thick black line indicates the IC50 for each graph.
One of these mechanisms is the overexpression of the copper export pump (ATP7B) which expels cisplatinum from the cell. It has been shown that this molecule is overexpressed in human tumours and that cell lines which overexpress this molecule are more resistant to cisplatinum and carboplatinum than control lines.
Two cell lines derived from 2008 cells (Katano, Safaei et al. 2003) were studied. One overexpresses the ATP7B pump, and the other only contains the control vector. The cytostatic activity of the cisplatinum and the CDR was tested in these two lines using the MTT test.

RDM4 [2] = experiment: DNA fragmentation by marking with propidium iodure on RDM4; format: cell-based, mouse
Description: A second specific marking of apoptosis is the fragmentation of DNA between the nucleosomes. The fragmented DNA is located in the apoptotic bodies in the terminal phase of apoptosis. This DNA is hypodiploid and so less in quantity than that present in normal cells. It can be quantified by flux cytometry after permeabilisation of the cell membranes and marking with PI. The quantity of DNA in a normal cell is 2n in the G0/G1 phase and 4n in the G2 phase. Therefore, the sub-G0 DNA in a quantity of less than 2n has a weaker fluorescence intensity.
This phenomenon tends to diminish after 48 hrs of treatment. On the other hand, when the cells are treated with 45 μM, the formation of hypodiploid particles, visualised by the sub-G0 DNA content, is less than 10% at 24 hrs and exceeds 50% at 48 hrs such as to reach 60% at 72 hrs. […] The quantity of hypodiploid particles in the control cells remains less than 4% over this same period.

[3] = test system: U-87 cells (a human glioblastoma); experiment: In vivo test, U-87 cells grafted onto nude/nude SWISS mice; settings: 18.5 mg/Kg intraperitoneally per injection, accumulated dose 185 mg/Kg
Method: The animals are manipulated under a laminar flow hood. Ten nude/nude (athymic) eleven week old SWISS mice were grafted subcutaneously with U-87 cells (a human glioblastoma) on the left thigh. After 7 days, the tumours become apparent and treatment commences. The animals are separated into two groups of five, 5 mice are thus treated with D-PBS (control mice) and the 5 others with RDC-11 (treated mice).
For the treated mice, 2 mg of RDC-11 placed in solution in 4 mL hot D-PBS for each injection. 0.5 mL of this solution cooled down to ambient temperature is administered intraperitoneally to each mouse. For the control mice, 0.5 mL D-PBS at ambient temperature is administered in the same way.
The dose of RDC-11 injected is 18.5 mg/Kg mouse. The accumulated dose is therefore 185 mg/Kg.
The development of the apparent tumours was followed by measuring them with calipers, by weighing the mice and by scanning one mouse from each batch with a CT-scan after injecting a contrast product (Fenestra VC). The mice were individualised by a mark on the ear.
The volume of the apparent tumours was calculated according to the formula:
V=(4/3)*π*(L/2)*(I/2)^2 where L is the length and I the width measured.

RDM4 [4] = experiment: Apoptosis by marking with Annexin-V on RDM4; format: cell-based, mouse
Method: Cell death is measured by a first specific marking of the apoptosis. The externalisation of the anionic phospholipids, normally located on the inner layer of the plasmic membrane, is one of the precocious markers of apoptosis (Martin et al, 1996). Annexin-V is a protein which fixes specifically onto the phosphatidylserines in the presence of calcium. When Annexin-V is coupled to a fluorochrome, it makes it possible to quantify the apoptotic cells by flux cytometry.
The control cells are treated with the equivalent volume of solvent (ethanol). […] After 72 hrs, the apoptosis rate is still as low as that of the control cells. On the other hand, with treatment at 45 μM, this rate already reaches 70% at 24 hrs and exceeds 99% after 48 hrs—a sign of significant apoptosis induction.

TK6 and NH32 cells = experiment: Apoptosis by marking with Annexin-V on TK6 and NH32 cells; format: cell-based, human; settings: 1.5 μM
Method: The toxicity of the organoruthenium complex on the TK6 and NH32 lymphoblastoid cells is measured with Annexin-V—a specific marker of precocious apoptosis. This marking is implemented on cells treated with derivative 11 at 1.5 μM after 0 hrs, 24 hrs, 48 hrs, 72 hrs and 96 hrs. […] Beyond 72 hrs, the apoptosis reaches the maximum limit of 90% and forms a plateau. In the control cells, the apoptosis rate remains less than 10% for the whole of the experiment. The increase over time of the externalisation of the anionic phospholipids is similar in the two cell lines, but the TK6 cells enter into apoptosis with a delay of a dozen hours on their p53-deficient variants. The NH32 line reaches the limit formed by the 90% plateau earlier than the TK6 cells. The p53 protein seems to slow down activation of the precocious signs of apoptosis induced by the Ru complexes.

Compound | proteic levels of the active fragment of caspase 3 (Western blot) (A172 glioblastoma cells) | sensitivity of the line expressing ATP7B relative to the control line (MTT) [1] | cell cycle distribution (propidium iodure) (RDM4 [2]; 15 μM, first two days) | hypodiploid particles (sub-G0 DNA content) (RDM4 [2]; 45 μM, 72 hrs) [%] | toxicity in grafted mice [3] | weight and volume of the tumours / tumoral growth ([3]; listed as RDC-11) | apoptosis rate (Annexin-V) (RDM4 [4]; 15 μM, up to 72 hrs) | apoptosis rate (Annexin-V) (RDM4 [4]; 45 μM, 24 hrs) [%] | externalisation of the phosphatidylserines (Annexin-V) (TK6 and NH32 cells; 48 hrs) | externalisation of the phosphatidylserines (Annexin-V) (TK6 and NH32 cells; 72 hrs of continuous treatment) [%]
N.N.[Cl][Pt][Cl] [Cisplatinum, reference compound] | increasing the proteic levels of the active fragment of caspase 3 | significantly less sensitive | – | – | – | – | – | – | – | –
[Ru(C6H4-2-C5H4N)(phen)(NCMe)2]PF6 [Compound 11] | – | – | accumulation in the G0/G1 phase | 60 | without any toxicity | less in relation to the controls; also recorded: changes the nature of tumoral growth | does not shown any effect | 70 | exceeds 50% | 90
